Data: the supplement of paper PMC13380429

Legend:
HepG2 [1] = assay: drug sensitivity score (DSS) for viability; higher = more toxic; extreme values may be limits of the assay; conditions: 72 h
Vero E6 [2] = assay: as above; conditions: 72 h
Calu-3 [3] = assay: as above; conditions: 72 h
U2OS [4] = assay: as above; conditions: 72 h
Caco-2 [5] = assay: as above; conditions: 72 h
A549-ACE2 [6] = assay: phospholipidosis EC50; higher = less potent phospholipidosis inducer; conditions: 24 h
[7] = test system: A549-ACE2 infected with SARS-CoV-2; assay: SARS-CoV-2 infection rate relative to DMSO; higher = more infection; conditions: 24 h
HepG2 [8] = assay: cell viability relative to DMSO; higher = less toxic; conditions: 72 h
Vero E6 [9] = assay: as above; conditions: 72 h
Calu-3 [10] = assay: as above; conditions: 72 h
U2OS [11] = assay: as above; conditions: 72 h
Caco-2 [12] = assay: as above; conditions: 72 h
[13] = test system: A549-ACE2 infected with SARS-CoV-2; assay: morphology score (similarity to uninfected cells); higher = more like uninfected cells; conditions: 24 h
HepG2 [14] = assay: relative viability EC50 (midpoint between 100% and the lowest measured viability); higher = less toxic; conditions: 72 h
Vero E6 [15] = assay: as above; conditions: 72 h
Calu-3 [16] = assay: as above; conditions: 72 h
U2OS [17] = assay: as above; conditions: 72 h
[18] = test system: A549-ACE2 infected with SARS-CoV-2; assay: cell count relative to DMSO; higher = less toxic; conditions: 24 h
A549-ACE2 [19] = assay: drug-induced phospholipidosis relative to tamoxifen; higher = more phospholipidosis
Caco-2 [20] = assay: relative viability EC50 (midpoint between 100% and the lowest measured viability); higher = less toxic; conditions: 72 h

C[C@@H](Oc1cc(-n2cnc3ccc(CN4CCN(C)CC4)cc32)sc1C(N)=O)c1ccccc1C(F)(F)F
Conditions	drug sensitivity score	phospholipidosis EC50 [nM]	relative viability EC50 [nM]
A549-ACE2 [6]	–	2900	–
Caco-2 [5]	11.1	–	–
Calu-3 [3]	5.5	–	–
Calu-3 [16]	–	–	1730
HepG2 [1]	25.5	–	–
HepG2 [14]	–	–	54
U2OS [4]	13.3	–	–
U2OS [17]	–	–	80.4
Vero E6 [2]	9.3	–	–
Vero E6 [15]	–	–	444

Conditions	SARS-CoV-2 infection rate, [7] [%]	cell count, [18] [%]	cell viability, Caco-2 [12] [%]	cell viability, Calu-3 [10] [%]	cell viability, HepG2 [8] [%]	cell viability, U2OS [11] [%]	cell viability, Vero E6 [9] [%]	morphology score, [13]
1 nM	–	–	96.8	105	98.2	104	101	–
10 nM	–	–	95.2	86.9	101	101	104	–
0.1 µM	104	60	–	–	–	–	–	0.01
100 nM	–	–	67.2	84.5	23.9	67.9	77.2	–
0.3 µM	101	55	–	–	–	–	–	0.06
1 µM	103	61	–	–	–	–	–	0.19
1000 nM	–	–	62.7	84.8	19.4	51.8	64.6	–
3 µM	36	62	–	–	–	–	–	0.65
10000 nM	–	–	68.5	36.1	8	48.8	36	–

A549-ACE2 [19], 24 h
Conditions	drug-induced phospholipidosis [%]
0.3 µM	14.3
0.833333 µM	26.9
3.33333 µM	156
6.66667 µM	198
10 µM	260
30 µM	246

C=C[C@@]1(C)CC(=O)[C@]2(O)[C@@]3(C)[C@@H](O)CCC(C)(C)[C@@H]3[C@H](OC(=O)CCN(C)C)[C@H](OC(C)=O)[C@@]2(C)O1 [colforsin-daproate]
Conditions	drug sensitivity score	relative viability EC50 [nM]
Caco-2 [5]	0.1	–
Caco-2 [20]	–	> 10000
Calu-3 [3]	0	–
Calu-3 [16]	–	> 10000
HepG2 [1]	0	–
HepG2 [14]	–	> 10000
U2OS [4]	0	–
U2OS [17]	–	> 10000
Vero E6 [2]	1.3	–
Vero E6 [15]	–	> 10000

Conditions	SARS-CoV-2 infection rate, [7] [%]	cell count, [18] [%]	cell viability, Caco-2 [12] [%]	cell viability, Calu-3 [10] [%]	cell viability, HepG2 [8] [%]	cell viability, U2OS [11] [%]	cell viability, Vero E6 [9] [%]	morphology score, [13]
1 nM	–	–	101	103	93.9	105	98	–
10 nM	–	–	98.9	95.5	100	103	93.9	–
0.1 µM	88	99	–	–	–	–	–	0.33
100 nM	–	–	109	99.2	94	102	96.5	–
0.3 µM	98	105	–	–	–	–	–	0.05
1 µM	106	105	–	–	–	–	–	-0.06
1000 nM	–	–	94	106	100	101	90.5	–
3 µM	108	104	–	–	–	–	–	-0.03
10000 nM	–	–	89.1	98.9	95.3	97.3	77	–

drug-induced phospholipidosis [%], A549-ACE2 [19]
Conditions	0.3 µM	0.833333 µM	3.33333 µM	6.66667 µM	10 µM	30 µM
24 h	-0.11	-0.39	-2.43	1	1.72	23.6
48 h	0.82	-1.25	-1.96	0.45	2.53	34.6
72 h	2.97	-1.9	-2.38	-1.51	0.457	–

OC(CCN1CCCCC1)(c1ccccc1)C1CC2C=CC1C2 (stereo unspecified) [biperiden]
Conditions	drug sensitivity score	relative viability EC50 [nM]
Caco-2 [5]	0	–
Caco-2 [20]	–	> 10000
Calu-3 [3]	0	–
Calu-3 [16]	–	> 10000
HepG2 [1]	0	–
HepG2 [14]	–	> 10000
U2OS [4]	0	–
U2OS [17]	–	> 10000
Vero E6 [2]	0	–
Vero E6 [15]	–	> 10000

Conditions	SARS-CoV-2 infection rate, [7] [%]	cell count, [18] [%]	cell viability, Caco-2 [12] [%]	cell viability, Calu-3 [10] [%]	cell viability, HepG2 [8] [%]	cell viability, U2OS [11] [%]	cell viability, Vero E6 [9] [%]	morphology score, [13]
1 nM	–	–	93.2	103	93.3	99.4	92.7	–
10 nM	–	–	96	108	108	101	95.8	–
100 nM	–	–	99	108	99.5	102	95.2	–
0.3 µM	106	100	–	–	–	–	–	-0.01
1000 nM	–	–	97.9	101	110	97	96.2	–
3 µM	76	107	–	–	–	–	–	0.49
10 µM	55	112	–	–	–	–	–	0.74
10000 nM	–	–	104	95.4	97.2	95.3	101	–
30 µM	44	113	–	–	–	–	–	0.76

drug-induced phospholipidosis [%], A549-ACE2 [19]
Conditions	0.3 µM	0.833333 µM	3.33333 µM	6.66667 µM	10 µM	30 µM
24 h	6.44	3.39	3.47	5.73	10.9	32.9
48 h	5.46	-0.33	0.38	9.63	13.4	30.6
72 h	8.44	0.683	2.98	6.62	5.63	27.3

COc1ccc(C[C@H]2NC[C@H](O)[C@H]2OC(C)=O)cc1 [anisomycin]
Conditions	drug sensitivity score	relative viability EC50 [nM]
Caco-2 [5]	18.9	–
Caco-2 [20]	–	69.1
Calu-3 [3]	16.1	–
Calu-3 [16]	–	117
HepG2 [1]	24.6	–
HepG2 [14]	–	72.8
U2OS [4]	22.9	–
U2OS [17]	–	110
Vero E6 [2]	25.9	–
Vero E6 [15]	–	61.4

Conditions	SARS-CoV-2 infection rate, [7] [%]	cell count, [18] [%]	cell viability, Caco-2 [12] [%]	cell viability, Calu-3 [10] [%]	cell viability, HepG2 [8] [%]	cell viability, U2OS [11] [%]	cell viability, Vero E6 [9] [%]	morphology score, [13]
1 nM	–	–	99.4	103	96.1	103	94.1	–
10 nM	–	–	87	97.9	98.5	95.6	93	–
0.1 µM	7	103	–	–	–	–	–	0.85
100 nM	–	–	58.5	67.4	39.4	53.4	34.1	–
0.3 µM	6	85	–	–	–	–	–	0.65
1 µM	18	64	–	–	–	–	–	0.48
1000 nM	–	–	24.8	35.1	11.8	5.4	9.8	–
3 µM	14	34	–	–	–	–	–	0.46
10000 nM	–	–	26.5	29.1	3.7	0.5	0.4	–

A549-ACE2 [19], 24 h
Conditions	drug-induced phospholipidosis [%]
0.3 µM	4.72
0.833333 µM	-0.99
